Results reported in patent US20240425607A1, “IL-18BP ANTAGONIST ANTIBODIES AND THEIR USE IN MONOTHERAPY AND COMBINATION THERAPY IN THE TREATMENT OF CANCER” (Compugen Ltd., priority 2023, published 2024).

Columns and labels:
[1] = tested on: MC38ova tumor-bearing mice; assay: Peripheral effects in MC38ova tumor-bearing mice: anti-mIL18BP vs engineered mIL-18; format: in vivo; details: single dose, varying concentrations of IL-15
Description: Nine days pre-inoculum, vials of MC38ova^dim cells were thawed into RPMI media containing 10% FBS, 1% Glutamax, 1% Sodium pyruvate, 1% HEPES, 1% NEAA, 0.01% 2-mercaptoethanol, 1% Penicillin-Streptomycin. Following centrifugation at 300×g for 8 min, cell pellet was resuspended, counted and seeded in a T175 flask. On days −7, −5 and −2, the cells were detached and re-seeded at 6-8*10^6 cells/T175 flask. On the day of inoculum, the cells were detached, centrifuged at 300×g for 10 min, filtered through […] cell strainer and resuspended in RPMI.
Experiments were performed in C57Bl/6 (female, 6-8 wk, Envigo). Mice were anesthetized with 10% Ketamine and 10% Xylazine mixture injected intraperitoneal. Next, mice were inoculated with MC38ova cells (1.2×10^6) subcutaneously to the right flank in 50 μl/mice.
At tumor volume of −120 mm^3 (day 9), mice were randomly assigned into treatment groups. Mice were treated with Synagis mouse IgG1, k isotype control 15 mg/kg (IP), anti-mIL18 bp 837 mIgG1 15 mg/kg (IP), PBS (SC), or engineered IL-18 (SC) 0.32 mg/kg. Treatments were injected twice a week for a total of 6 treatments. […] Mice were weighed every week. Mice were bled before the 4th treatment, 4 hours after the 4th treatment, and 24 hours after the 4th treatment. Serum was analyzed for presence of IFNg, TNFα, MCP1, IL6 by Cytometric Bead Array (CBA) Mouse Inflammation Kit (BD Cat. No. 552364). […]

[2] = tested on: tumor infiltrating lymphocytes (TILs) co-cultured with MEL624 cells; assay: rhIL-18 titration in TIL:MEL624 co-culture; format: cell-based, human; details: 24 hr
Description: Human MEL624 cells were thawed and grown in DMEM with 10% FBS, 1% Glutamax, 1% Penicillin-Streptomycin Solution and 1% HEPES buffer. The cells were then seeded at 75 k cells/well in a 96 well plate in the assay medium (IMDM with 10% human serum, 1% Glutamax, 1% MEM eagle, 1% Sodium Pyruvate and 1% Penicillin-Streptomycin Solution) and incubated 1 hour in 37° C., 5% CO2 incubator before co-culture with human tumor infiltrating lymphocytes that were previously expanded using known melanoma antigens (TILs). Human TILs were thawed in full TIL media and 75 k cells/well were co-cultured with the MEL624 cells to create an effector: target ratio of 1:1. The co-cultured cells were then treated with rhIL-18 (1.23-300 ng/ml). Cells and all added solutions were prepared in full assay medium to a final volume of 200 μl/well. Plates were incubated for 24 hours in 37° C., 5% CO2 incubator, after which the supernatant was collected for cytokine secretion evaluation. All tests were done in triplicates.

| Substance | Spleens of mice treated with IL-15 vs controls [1] | Concentration at saturation of IFNγ secretion [2] [ng/mL] | Concentration that activates TILs (IFNγ secretion) [2] [ng/mL] |
| --- | --- | --- | --- |
| IL-15: recombinant IL15 given to mice as comparator cytokine [reference compound] | larger than controls |  |  |
| rhIL-18: recombinant human IL-18 (R&D systems) |  | ~100 | > 1 |
